Test results as given in patent publication US20120157401A1, “METHODS FOR TREATING NEUROFIBROMATOSIS” (PTC Therapeutics, Inc., priority 2009, published 2012).
“And” between values parts separate entries of the source, which are not always exact repeats. Equal values may be shown once. Read-outs that look alike come from different tables or passages of the source.

Columns and labels:
[1] = Functional observation battery, 7 days oral gavage; format: in vivo, Sprague Dawley rats; conditions: 40, 120, and 400 mg/kg daily for 7-days
[2] = tested on: SY5Y orthotopic xenografts; assay: Orthotopic SY5Y neuroblastoma tumor model (kidney capsule): tumor weight; format: in vivo
Excerpt: Experimental Design. In orthotopic tumor models, human tumor cells are implanted into the mouse in an organ that corresponds to the location from which the tumors arise. Such models may provide a better predictor of clinical efficacy than injection of tumors into the flanks of nude mice. See Hoffman, Invest. New Drugs 1999, 17(4):343-59. SY5Y neuroblastoma or SKNEP Ewing sarcoma tumor cells (1×10^6 cells/mouse) were implanted into the kidney capsule of female athymic nude mice according to published methods. See Huang et al., Proc. Natl. Acad. Sci. USA 2003, 100(13):7785-90. One week after implantation of each type of tumor, mice were divided into 2 groups and were administered a test Compound as shown in Table 21.
After 5 weeks of treatment, the mice were sacrificed, and the weights of the tumors were assessed.

[3] = tested on: HT1080 cells; assay: Kinetics of S-phase transit by BrdU incorporation in HT1080 cells; format: cell-based, human
Description: Experimental Design. HT 1080 cells are exposed to BrdU (bromodeoxyuridine, a synthetic nucleoside that is an analogue of thymidine and is incorporated into DNA during the S phase of cell division) (FITC BrdU Flow Kit, BD Pharmingen catalog #552598). Cells are grown and treated as described in Section 9.3.1.3 above with the exception that one hour prior to harvesting by trypsinization, BrdU (final concentration 1 μM) is added to each culture for 1 hour. Cells actively replicating DNA during this brief time incorporate the BrdU into the DNA, which can then be quantitated. BrdU content is quantitated with using the FITC BrdU Flow Kit as instructed by the manufacturer. The process includes fixation (paraformaldehyde) and DNA staining with 7-AAD (7-amino-actinomycin D) followed by incubation with a fluoro-tagged anti-BrdU antibody that specifically recognizes BrdU incorporated into DNA. Dual channel FACS analysis permits assessment of both the DNA content of individual cells and the rate of transit across the S-phase, which is assessed based upon BrdU incorporation over the one hour treatment period.

[4] = tested on: T47D xenografts; assay: T47D estrogen-sensitive breast cancer xenograft: tumor growth
Description: Experimental Design. Estrogen pellets (0.72 mg/pellet) were implanted 30 days prior to cell implantation and again 60 days later. T47D estrogen-sensitive breast cancer cells (5×10^6 cells/mouse mixed 1:1 with […] ™) were implanted subcutaneously in female athymic nude mice. […] Tamoxifen was included as a positive control.
Tumor size was measured by calipers at periodic intervals. After 74 days of treatment, the mice were sacrificed.

[5] = tested on: HT1080 cells; assay: Reversibility of cell cycle delay after washout in HT1080 cells; format: cell-based, human; conditions: HT1080, 100 nM for 14 hours, then washout
[6] = tested on: VEGF-A; assay: Patients: serum and plasma VEGF-A levels; format: in vivo, human
Description: Subjects with NF2 may receive continuous daily treatment with a Compound administered at 100 mg per dose, 2 times a day (BID) for up to 1 year, or longer as appropriate, or until tumor progression. […] Tumor shrinkage or an improvement in hearing are indicators of efficacy.
Anti-angiogenic activity: Assessing VEGF concentrations provides a relevant and convenient mechanism-specific marker of Compound activity. […] For example, clinically validated ELISA kits (e.g., from R&D Systems, Minneapolis, Minn.) may be used to measure concentrations of VEGF, VEGF-C, P1GF, VEGFR, and inflammatory mediators such as IL-6 and IL-8. CT scan and MRI scan may also be used to assess peritumoral inflammation or edema.
Blood for VEGF, VEGFR, and Cytokines. Two blood samples (1 for plasma and 1 for serum) may be obtained for assessment of VEGF, VEGFR, and cytokine levels.
Each sample for plasma collection may comprise 3 mL of venous blood drawn into a […]® tube with K2EDTA as the anticoagulant. Immediately after collection, the tube may be gently inverted 8 to 10 times to mix the anticoagulant with the blood sample. The tube may be stored upright at room temperature until centrifugation; centrifugation and sample processing may be performed within 30 minutes of sample collection. […]

[7] = Patients: hearing function (word recognition, pure tone threshold, BAER); format: in vivo, human
Excerpt: Hearing function: Assessments of word recognition and pure tone thresholds may be direct measures of patient functioning that define symptomatic consequences of the presence of VS (see, e.g., Halpin et al., Otol Neurotol., January 2006, 27(1):110-6). Standard clinical criteria for definition of hearing response (H-R) based on a 50-word hearing test (see, e.g., Thornton et al., J. Speech Hear. Res., September 1978, 21(3): 507-18) can be employed for word recognition tests.
Hearing Tests. Subjects may undergo hearing tests at screening, and at various times during the treatment protocol. Hearing assessment may be determined in standard clinical fashion and may include:
Determination of word recognition scores using a standardized list of test words, i.e., the 50-item Central Institute for the Deaf [CID] list W-22, recorded) (Thornton et al., J. Speech Hear Res., September 1978, 21(3): 507-18);
Pure-tone averages calculated as the average of the pure-tone thresholds at 500, 1000, 2000, and 3000 Hz;
Brainstem auditory evoked response (BAERs) reported as the latency of wave V, if present; and […]

[8] = Trough plasma concentrations of Compound #10 in HT1080 xenograft mice (HPLC-MS/MS); format: in vivo; conditions: athymic nude, mouse, oral, 1 mg/kg BID
[9] = Respiratory safety pharmacology in awake telemeterized dogs; format: in vivo, beagle dogs; conditions: single oral doses of 30, 60, and 120 mg/kg, male dogs

COc1ccc(C2c3[nH]c4ccc(Cl)cc4c3CCN2C(=O)Oc2ccc(Cl)cc2)cc1 (racemic) [Compound #10]
Behavioral or neurological effects [1]: no adverse behavioral or neurological effects
Growth of orthotopic SY5Y tumors (tumor weight) ([2]; 5 weeks of treatment): completely prevented growth
Toxicity on observing the animals ([2]; orthotopic SKNEP and SY5Y mice): no evidence of toxicity
Percentage of cells residing in S-phase ([3]; HT1080, 18-hour treatment, increasing doses): net increase
BrdU incorporation of individual cells vs DMSO control ([3]; HT1080, one-hour BrdU pulse after 18-hour treatment): incorporated less BrdU
Mean % Inhibition of Tumor Size vs Vehicle at Day 74 ([4]; 10 mg/kg oral QD): 40%
Toxicity on observing the animals ([4]; T47D xenograft mice, 10 mg/kg QD, 74 days): no evidence of toxicity
Time after washout by which cells had resumed normal cycling [5]: ≤ 26 h
Plasma VEGF-A levels in patients (FIG. 35) [6]: reduced
Serum VEGF-A levels in patients (FIG. 34) [6]: reduced
Hearing function in patients (FIG. 39) [7]: stabilized hearing function
concentration at 16 h ([8]; 16 hours after the first day of dosing (n=3), read-out: Mean trough plasma concentration): 130 ng/mL and 280 nM
concentration at 16 h ([8]; 16 hours after the last dose on Day 18 (n=4), read-out: Steady state mean trough plasma concentration): 820 ng/mL
Changes in respiratory rate, core body temperature, arterial blood gases, arterial pH, or arterial bicarbonate [9]: no dose dependent or biologically significant changes
